According to US8067424B2, “Selective inhibitors for cyclin-dependent kinases” (Emory University, priority 2007, dated 2011):
Read-outs that look alike come from different tables or passages of the source.

Experiments:
Format in all cases: biochemical
[1] = target: PLK1 (Homo sapiens, UniProt P53350); assay: Kinase screen: PLK1 assay
Protocol: (§1) Generally, the same procedure was used for all assays. Since the total assay volume was 25.5 microliters, 0.5 microliters of inhibitors at 51× assay concentration were added to the plates before any other addition.
(§2) The basic procedure was to add 0.5 microliters inhibitor/control in DMSO to plate. Fifteen microliters of enzyme/substrate/buffer mix were added and incubated for 5 min. Ten microliters MgATP at the relevant concentration were added and incubated for 30 min. The assay was stopped by adding 5 microliters of 3% orthophosphoric acid. The assay was transferred to a p81 filter plate and read in a scintillation counter of 30 sec/well. Note that this assay procedure was not followed for MKK1, which instead involved a two-step assay, and PKC alpha, which required the addition of lipid vesicles.
(50-1000 cpm/pmole) and incubated for 30 min at room temperature. Assays were stopped by addition of 5 μl of 0.5 M (3%) orthophosphoric acid and then harvested onto P81 Unifilter plates with a wash buffer of 50 mM orthophosphoric acid.

[2] = target: JNK2 (Homo sapiens, UniProt P45984); assay: Kinase screen: JNK2 assay
JNK2, sequence (P45984 whole entry, species assumed): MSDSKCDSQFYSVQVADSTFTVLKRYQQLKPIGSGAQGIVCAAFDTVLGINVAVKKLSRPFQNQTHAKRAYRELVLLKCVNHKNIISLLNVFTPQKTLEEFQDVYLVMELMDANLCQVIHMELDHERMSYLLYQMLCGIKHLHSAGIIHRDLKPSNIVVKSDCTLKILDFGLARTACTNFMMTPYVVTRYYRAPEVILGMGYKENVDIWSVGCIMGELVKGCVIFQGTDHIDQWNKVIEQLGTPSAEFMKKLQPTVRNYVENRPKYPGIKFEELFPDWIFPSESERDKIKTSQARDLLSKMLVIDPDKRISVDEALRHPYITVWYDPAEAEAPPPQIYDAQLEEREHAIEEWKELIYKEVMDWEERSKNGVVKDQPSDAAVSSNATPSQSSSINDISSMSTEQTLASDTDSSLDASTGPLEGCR
Protocol: as §1, §2
JNK2 assay: JNK2 1(5-20 mU diluted in 50 mM Tris (pH 7.5), 0.1 mM EGTA, 1 mg/ml BSA, 0.1% b-mercaptoethanol) was assayed against ATF2 (activating transcription factor in a final volume of 25.5 μl in 50 mM Tris pH 7.5, 0.1 mM EGTA, 0.1% b-Mercaptoethanol, ATF2 (3 μM), 10 mM magnesium acetate and 0.02 mM [33P-g-ATP] (500-1000 cpm/pmole) and incubated for 30 min at room temperature. Assays were stopped by addition of 5 μl of 0.5 M (3%) orthophosphoric acid and then harvested onto P81 Unifilter plates with a wash buffer of 50 mM orthophosphoric acid.

[3] = target: MARK3 (Homo sapiens, UniProt P27448); assay: Kinase screen: MARK3 assay
MARK3, sequence (P27448 whole entry, species assumed): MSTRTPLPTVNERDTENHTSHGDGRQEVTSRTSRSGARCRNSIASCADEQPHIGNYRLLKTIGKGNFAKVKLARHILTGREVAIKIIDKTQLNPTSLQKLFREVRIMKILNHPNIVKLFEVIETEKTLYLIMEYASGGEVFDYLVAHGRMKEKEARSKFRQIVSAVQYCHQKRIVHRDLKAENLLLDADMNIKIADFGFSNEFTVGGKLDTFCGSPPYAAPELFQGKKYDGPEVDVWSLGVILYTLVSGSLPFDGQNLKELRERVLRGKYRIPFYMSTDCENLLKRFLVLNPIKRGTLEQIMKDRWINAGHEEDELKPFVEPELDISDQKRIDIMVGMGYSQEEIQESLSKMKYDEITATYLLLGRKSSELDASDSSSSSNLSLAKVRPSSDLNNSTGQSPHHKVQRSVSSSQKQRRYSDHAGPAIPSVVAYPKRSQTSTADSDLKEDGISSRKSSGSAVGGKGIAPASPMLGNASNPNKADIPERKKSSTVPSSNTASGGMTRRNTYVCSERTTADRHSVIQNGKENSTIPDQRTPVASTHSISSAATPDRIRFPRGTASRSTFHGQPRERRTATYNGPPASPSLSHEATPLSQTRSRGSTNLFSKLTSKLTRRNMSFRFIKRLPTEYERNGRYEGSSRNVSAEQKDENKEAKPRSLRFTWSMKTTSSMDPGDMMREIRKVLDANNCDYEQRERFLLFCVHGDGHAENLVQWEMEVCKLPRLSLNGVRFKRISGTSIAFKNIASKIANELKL
Protocol: as §1, §2
MARK3 assay: MARK3 (5-20 mU diluted in 50 mM Tris pH 7.5, 0.1 mM EGTA, 0.1% b-mercaptoethanol, 1 mg/ml BSA) was assayed against CHKtide substrate ([…]) (SEQ ID NO: 12) in a final volume of 25.5 μl containing 50 mM Tris pH 7.5, 0.05% b-mercaptoethanol, 300 μM substrate peptide, 10 mM magnesium acetate and 0.005 mM [33P-g-ATP] (50-1000 cpm/pmole) and incubated for 30 min at room temperature. Assays were stopped by addition of 5 μl of 0.5 M (3%) orthophosphoric acid and then harvested onto P81 Unifilter plates with a wash buffer of 50 mM orthophosphoric acid.

[4] = target: T1, PKC zeta (Homo sapiens, UniProt Q05513); assay: Kinase screen: PKC zeta assay
T1 sequence (Q05513 1-592): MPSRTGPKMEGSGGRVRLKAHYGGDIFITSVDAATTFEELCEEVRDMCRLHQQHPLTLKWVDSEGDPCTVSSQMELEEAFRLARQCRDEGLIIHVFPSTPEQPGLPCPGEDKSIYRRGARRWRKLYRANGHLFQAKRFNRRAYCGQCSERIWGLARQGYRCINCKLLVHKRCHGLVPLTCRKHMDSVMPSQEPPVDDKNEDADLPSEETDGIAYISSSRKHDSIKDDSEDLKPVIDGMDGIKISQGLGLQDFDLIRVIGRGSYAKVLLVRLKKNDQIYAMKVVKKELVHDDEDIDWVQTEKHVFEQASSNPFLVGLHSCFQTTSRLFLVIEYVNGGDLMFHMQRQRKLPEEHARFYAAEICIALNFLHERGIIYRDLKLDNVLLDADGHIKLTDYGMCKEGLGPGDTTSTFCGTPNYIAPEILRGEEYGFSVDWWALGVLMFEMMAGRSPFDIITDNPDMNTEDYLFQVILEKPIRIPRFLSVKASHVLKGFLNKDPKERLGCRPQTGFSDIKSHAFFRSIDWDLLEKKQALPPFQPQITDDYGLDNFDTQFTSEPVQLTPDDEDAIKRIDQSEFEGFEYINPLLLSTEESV
Protocol: as §1, §2
PKC zeta assay: PKC zeta (5-20 mU diluted in 50 mM Tris pH 7.5, 0.1 mM EGTA, 0.1% b-mercaptoethanol, 1 mg/ml BSA, 100 μM Vanadate) was assayed against a substrate peptide ([…]) (SEQ ID NO: 34) in a final volume of 25.5 μl containing 50 mM Tris pH 7.5, 0.05% b-mercaptoethanol, 10 μM Vanadate, 300 μM substrate peptide, 10 mM magnesium acetate and 0.005 mM [33P-g-ATP] (50-1000 cpm/pmole) and incubated for 30 min at room temperature. Assays were stopped by addition of 5 μl of 0.5 M (3%) orthophosphoric acid and then harvested onto P81 Unifilter plates with a wash buffer of 50 mM orthophosphoric acid.

[5] = 10 micromolar compound, read-out: mean activity remaining (as a percentage of the original activity), PLK 1
[6] = 10 micromolar compound, read-out: mean activity remaining (as a percentage of the original activity), JNK2
[7] = 10 micromolar compound, read-out: mean activity remaining (as a percentage of the original activity), MARK 3
[8] = 10 micromolar compound, read-out: mean activity remaining (as a percentage of the original activity), PKC zeta

PLK1, sequence (P53350 whole entry, species assumed): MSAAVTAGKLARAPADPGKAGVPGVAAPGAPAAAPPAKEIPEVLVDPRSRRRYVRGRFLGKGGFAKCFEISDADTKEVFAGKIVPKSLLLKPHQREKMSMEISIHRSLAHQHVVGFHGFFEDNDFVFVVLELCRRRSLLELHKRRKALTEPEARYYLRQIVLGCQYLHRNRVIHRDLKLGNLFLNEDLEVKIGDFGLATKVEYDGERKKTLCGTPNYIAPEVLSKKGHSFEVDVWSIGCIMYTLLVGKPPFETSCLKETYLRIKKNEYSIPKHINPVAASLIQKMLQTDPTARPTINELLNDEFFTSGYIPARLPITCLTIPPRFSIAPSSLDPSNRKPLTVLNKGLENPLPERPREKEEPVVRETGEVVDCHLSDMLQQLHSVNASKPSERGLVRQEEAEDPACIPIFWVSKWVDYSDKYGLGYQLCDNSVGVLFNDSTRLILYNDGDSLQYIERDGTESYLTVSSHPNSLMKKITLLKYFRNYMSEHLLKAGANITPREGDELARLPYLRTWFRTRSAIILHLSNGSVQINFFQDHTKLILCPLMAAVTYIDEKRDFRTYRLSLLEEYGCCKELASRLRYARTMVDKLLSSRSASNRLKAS

CC(C)c1cnn2c(NCc3ccccc3)cc(NCCCCCCCN)nc12 [BS-181]
remaining activity at 10 µM ([1]; PLK1, 10 μM, read-out: Mean Remaining Enzyme Activity (%)): 100% | remaining activity at 10 µM ([2]; JNK2, 10 μM, read-out: Mean Remaining Enzyme Activity (%)): 90% | remaining activity at 10 µM ([3]; MARK3, 10 μM, read-out: Mean Remaining Enzyme Activity (%)): 104% | remaining activity at 10 µM ([4]; PKC zeta, 10 μM, read-out: Mean Remaining Enzyme Activity (%)): 114%

C=C[C@H](CO)Nc1cc(NCc2ccccc2)n2ncc(C(C)C)c2n1 [ICEC0065]
remaining activity at 10 µM [1, 5]: 56% | remaining activity at 10 µM [2, 6]: 88% | remaining activity at 10 µM [3, 7]: 93% | remaining activity at 10 µM [4, 8]: 84%

CC[C@H](CO)Nc1cc(NCc2ccccc2)n2ncc(C(C)C)c2n1 [ICEC0067]
remaining activity at 10 µM [1, 5]: 64% | remaining activity at 10 µM [2, 6]: 97% | remaining activity at 10 µM [3, 7]: 89% | remaining activity at 10 µM [4, 8]: 76%

CC(C)c1cnn2c(NCc3ccccc3)cc(N[C@@H](CO)[C@H](O)CO)nc12 [ICEC0318, (3S)-3-(7-(Benzylamino)-3-isopropylpyrazolo[1,5-a]pyrimidin-5-ylamino)butane-1,2,4-triol]
remaining activity at 10 µM [1, 5]: 68% | remaining activity at 10 µM [2, 6]: 94% | remaining activity at 10 µM [3, 7]: 82% | remaining activity at 10 µM [4, 8]: 64%

CC(C)c1cnn2c(NCc3ccccc3F)cc(NCCCCCN)nc12 [ICEC-0232]
mean activity remaining (as a percentage of the original activity), PLK 1 ([1]; 10 micromolar compound): 55% | mean activity remaining (as a percentage of the original activity), JNK2 ([2]; 10 micromolar compound): 89% | mean activity remaining (as a percentage of the original activity), MARK 3 ([3]; 10 micromolar compound): 96% | mean activity remaining (as a percentage of the original activity), PKC zeta ([4]; 10 micromolar compound): 65%
